Test results published in article PMC4686731, “Screening of Pharmacologically Active Small Molecule Compounds Identifies Antifungal Agents Against Candida Biofilms” (Frontiers in Microbiology, 2015).
In brackets after ≈: the same amount, converted by molar mass. Read-outs that look alike come from different tables or passages of the source.

What was measured:
Candida strains = assay: AST, adhesion phase, all Candida strains; type: cell-based; details: all six strains
Experimental: (§1) The in vitro susceptibility of well-characterized wild-type C. albicans strain SC5314, which was provided by Prof. N.A.R. Gow (University of Aberdeen, Aberdeen, UK) was tested against 1280 compounds from the Library of Pharmacologically Active Compounds (LOPAC^1280TM, Sigma–Aldrich, USA). The screen was performed with C. albicans SC5314, and hits were further confirmed with the type strains C. dubliniensis MYA 577, C. glabrata ATCC 2001, C. kusei ATCC 6258, C. palapsilosis ATCC 22019, and C. tropicalis ATCC13803.
To investigate the antifungal effects of the hit compounds, ASTs were conducted using broth microdilution assays with high cell densities of the planktonic mode, adhesion phase and biofilm mode against Candida strains (C. albicans, C. dubliniensis, C. glabrata, C. kusei, C. palapsilosis, and C. tropicalis). First, high density cell (1 × 10^7 cells/mL) suspensions were added to the RPMI medium containing each hit compound (10–1000 μM) in 96-well plates and incubated at 37°C for 24 h. Next, the 50% minimum inhibitory concentrations (MICs) of high-density Candida planktonic cultures were determined using the CellTiter-Glo luminescent cell viability kit, as described above. The antifungal effects of the hit compounds were also evaluated in the adhesion phase and the biofilm mode, in the same manner as the planktonic mode. Candida biofilms were produced as described previously ([Jin et al., 2004]). In brief, Candida cells were grown on SDA at 37°C for 18 h. A loopful of the yeast culture was then inoculated into yeast nitrogen base (YNB) (Difco, USA) medium supplemented with 50 mM glucose. After overnight broth culture in a rotary shaker at 75 rpm, the cells were washed twice with 20 mL of PBS (pH 7.2, 0.1 M). The yeast cells were re-suspended in YNB supplemented with 100 mM glucose and adjusted to an optical density of 0.38 (1 × 10^7 cells/mL) at 520 nm. This standardized cell suspension was used immediately to form biofilms in the wells of 96-well polystyrene culture plates (Iwaki, Tokyo, Japan). […]

C. glabrata ATCC 2001 = assay: AST broth microdilution, high cell density planktonic mode; type: cell-based; details: Nakaseomyces glabratus, read-out: Minimum inhibitory concentration (MIC)
Experimental: as §1
(§2) To investigate the antifungal effects of the hit compounds, ASTs were conducted using broth microdilution assays with high cell densities of the planktonic mode, adhesion phase and biofilm mode against Candida strains (C. albicans, C. dubliniensis, C. glabrata, C. kusei, C. palapsilosis, and C. tropicalis). First, high density cell (1 × 10^7 cells/mL) suspensions were added to the RPMI medium containing each hit compound (10–1000 μM) in 96-well plates and incubated at 37°C for 24 h. Next, the 50% minimum inhibitory concentrations (MICs) of high-density Candida planktonic cultures were determined using the CellTiter-Glo luminescent cell viability kit, as described above. The antifungal effects of the hit compounds were also evaluated in the adhesion phase and the biofilm mode, in the same manner as the planktonic mode. Candida biofilms were produced as described previously ([Jin et al., 2004]). In brief, Candida cells were grown on SDA at 37°C for 18 h. A loopful of the yeast culture was then inoculated into yeast nitrogen base (YNB) (Difco, USA) medium supplemented with 50 mM glucose. After overnight broth culture in a rotary shaker at 75 rpm, the cells were washed twice with 20 mL of PBS (pH 7.2, 0.1 M). The yeast cells were re-suspended in YNB supplemented with 100 mM glucose and adjusted to an optical density of 0.38 (1 × 10^7 cells/mL) at 520 nm. This standardized cell suspension was used immediately to form biofilms in the wells of 96-well polystyrene culture plates (Iwaki, Tokyo, Japan). First, the cells were incubated for 90 min at 37°C in a shaker at 75 rpm to allow yeast adherence to the well surface (adhesion phase), before the medium was aspirated and each well was washed once with PBS to remove non-adherent cells. YNB containing 100 mM glucose was then pipetted into each well and the plate was incubated at 37°C in a shaker at 75 rpm for 24 h. Non-adherent cells were removed by pipetting and the biofilms were washed twice with PBS. Following this biofilm growth phase, microscopic examination of the cultures was performed to exclude contamination. These ASTs were repeated on three different occasions.

C. tropicalis ATCC13803 = assay: as above; type: cell-based; details: Candida tropicalis, read-out: Minimum inhibitory concentration (MIC)
Experimental: as §1, §2

C. kusei ATCC 6258 = assay: as above; type: cell-based; details: 24 h, read-out: Minimum inhibitory concentration (MIC)
Experimental: as §1, §2

C. dubliniensis MYA 577 = assay: as above; type: cell-based; details: Candida dubliniensis, read-out: Minimum inhibitory concentration (MIC)
Experimental: as §1, §2

[1] = tested on: C. palapsilosis ATCC 22019; assay: as above; type: cell-based; details: 24 h, read-out: Minimum inhibitory concentration (MIC)
Experimental: as §1, §2

C. albicans SC5314 = assay: as above; type: cell-based, Candida albicans; details: Candida albicans, SC5314, 24 h, read-out: Minimum inhibitory concentration (MIC)
Experimental: as §1, §2

[2] = tested on: C. albicans strain SC5314; assay: High-throughput screening (HTS) with antifungal susceptibility test, CellTiter-Glo ATP read-out; type: cell-based, Candida albicans; details: for inhibition at 10 µM: Candida albicans, SC5314, 24 h; for fungistatic or fungicidal effect on C. albicans: HTS; for percent inhibition of the metabolic activity (ATP level) of C. albicans: 10 µM
Experimental: as §1
High-Throughput Screening was conducted using ASTs, according to the standard Clinical and Laboratory Standard Institute (CLSI) method ([Watamoto et al., 2009]). Inocula from 24-h yeast cultures on Sabouraud’s dextrose agar (SDA) (Gibco, UK) were adjusted to a turbidity equivalent to a 0.5 McFarland standard at 520 nm using a spectrophotometer. The suspension was diluted further with RPMI 1640 medium (Gibco, UK) to yield an inoculum concentration of 0.5 × 10^3 to 2.5 × 10^3 cells/mL. C. albicans was incubated with small-molecule compounds (10 μM) from LOPAC^1280TM, which total volume was 150 μL, in 96-well plates at 37°C for 24 h to evaluate the antifungal effects. After incubation, the viability of the fungal cells was determined using the CellTiter-Glo luminescent cell viability kit (Promega, USA). The CellTiter-Glo reagent (150 μL) was added to the medium and incubated for 15 min at room temperature with shaking at 900 rpm. The luminescent signals were detected using a luminometer (GloMax Discover System, Promega, USA). The resulting signal intensity corresponds to ATP amounts and thus to the number of viable microbial cells upon drug exposure ([Stylianou et al., 2014]). In all 96-well plates, 100 and 0% growth controls were included as microbes plus dimethyl sulfoxide (0.1%) and microbes plus amphotericin B (100 μM), respectively. All assays were performed at least as two biological replicates in triplicate. The ATP level of C. albicans cells, which corresponded to the cell metabolic activity and viability, was calculated for each compound using the following equation (Figure 1A).
Percentageinhibition=100 × 1-{(experimental-positivecontrolaverage)/(negativecontrolaverage-positivecontrolaverage)}
Wells were scored as hits if the percentage inhibition was >50%. Hit compounds were evaluated further to assess their antifungal effects.

[3] = compound 10 μM, 0.5 × 10^3 to 2.5 × 10^3 cells/mL, 37°C, 24 h
[4] = ATCC2001, 50% MIC, planktonic mode, 1 × 10^7 cells/mL, 24 h
[5] = ATCC13803, 50% MIC, planktonic mode, 1 × 10^7 cells/mL, 24 h
[6] = 50% MIC, planktonic mode, 1 × 10^7 cells/mL
[7] = MYA577, 50% MIC, planktonic mode, 1 × 10^7 cells/mL, 24 h
[8] = 50% MIC, planktonic mode, 1 × 10^7 cells/mL, 24 h
[9] = compound 10 μM, 0.5 × 10^3 to 2.5 × 10^3 cells/mL, 37°C, 24 h, read-out: percent inhibition of the metabolic activity (ATP level) of C. albicans

Row | SMILES | concentration that inhibited the metabolic activity of Candida strains (Candida strains) [µM] | MIC (C. glabrata ATCC 2001; ATCC2001, 24 h) [µM] | MIC (C. tropicalis ATCC13803; ATCC13803, 24 h) [µM] | MIC (C. kusei ATCC 6258) [µM] | MIC (C. dubliniensis MYA 577; MYA577, 24 h) [µM] | MIC [1] [µM] | MIC (C. albicans SC5314) [µM] | inhibition at 10 µM ([2]; read-out: percent inhibition of the metabolic activity (ATP level) of C. albicans, compound 10 μM, 0.5 × 10^3 to 2.5 × 10^3 cells/mL, 37°C, 24 h) [%] | fungistatic or fungicidal effect on C. albicans ([2]; compound 10 μM) | percent inhibition of the metabolic activity (ATP level) of C. albicans [2, 3] [%] | MIC (C. glabrata ATCC 2001; [4]) [µM] | MIC (C. tropicalis ATCC13803; [5]) [µM] | MIC (C. kusei ATCC 6258; [6]) [µM] | MIC (C. dubliniensis MYA 577; [7]) [µM] | MIC [1, 6] [µM] | MIC (C. albicans SC5314; [8]) [µM] | inhibition at 10 µM [2, 9] [%]
1 | C[n+]1cc2c3c(ccc2c2ccc4cc5c(cc4c21)OCO5)OCO3 [Sanguinarine, Sanguinarine chloride hydrate] | < 15.6 | < 1 | < 1 | < 1 | < 1 | < 1 | < 1 | 100 | strong fungicidal effects | > 90 |  |  |  |  |  |  | 
2 | Cc1c2ccncc2c(C)c2c1[nH]c1ccccc12 [Ellipticine] |  |  |  |  |  |  |  |  | strong fungicidal effects | > 90 | 7.8 (≈ 1.92 µg/mL) | 15.6 (≈ 3.84 µg/mL) | 7.8 (≈ 1.92 µg/mL) | 3.9 (≈ 0.961 µg/mL) | 7.8 (≈ 1.92 µg/mL) | 7.8 (≈ 1.92 µg/mL) | 100
3 | Cc1ccc(S(=O)(=O)/C=C/C#N)cc1 [Bay11-7082] | < 31.3 |  |  |  |  |  |  |  | strong fungicidal effects | > 90 | 7.8 (≈ 1.62 µg/mL) | 7.8 (≈ 1.62 µg/mL) | 3.9 (≈ 0.808 µg/mL) | 3.9 (≈ 0.808 µg/mL) | 3.9 (≈ 0.808 µg/mL) | 7.8 (≈ 1.62 µg/mL) | 100
4 | CC(C)(C)c1ccc(S(=O)(=O)/C=C/C#N)cc1 [Bay11-7085] | < 31.3 |  |  |  |  |  |  |  | strong fungicidal effects | > 90 | 3.9 (≈ 0.972 µg/mL) | 3.9 (≈ 0.972 µg/mL) | 3.9 (≈ 0.972 µg/mL) | 3.9 (≈ 0.972 µg/mL) | 3.9 (≈ 0.972 µg/mL) | 3.9 (≈ 0.972 µg/mL) | 100
